Source: US4582700A, “Products and processes” (Mallinckrodt, Inc., priority 1983, dated 1986)

Test: Comparative 5 minute biodistribution of A-E and 201TlCl in rats
Format: in vivo, female Sprague-Dawley rats
Conditions: rat, i.v. 25 uCi/kg
Description: The following pharmacological studies were conducted on Complex (A), prepared by the method of Example 1; Complex (B), prepared by the method of Example 2; Complex (C) prepared by the method of Example 4; Complex (D) prepared by the method of Example 6; and Complex (E) prepared by the method of Example 7. Where indicated, Thallium-201 was used for comparative purposes.
The biodistribution of the experimental ^99m Tc(I) complexes in rats was compared with Thallium-201, currently the radionuclide of choice for myocardial perfusion imaging. Complex A was supplied as a vacuum-evaporated preparation and reconstituted with 0.9% Sodium Chloride, Injection, U.S.P. The ^99m Tc(I) complexes and ^201 TlCl solutions were diluted to concentrations of 12.5 uCi/ml with 0.9% Sodium Chloride, Injection, U.S.P. for dosing. Groups of 4-12 female Sprague-Dawley rats with body weights ranging from 180-231 g received single intraveneous injections of 25uCi/kg of Complex A, Complex B, Complex C, Complex D, Complex E, or ^201 TlCl.
Animals were sacrificed 5 minutes after dosing and radioactivity concentrations were determined by gamma scintillation spectroscopy in blood, heart, liver, lungs, kidney and skeletal muscle. As a measurement of selectivity of myocardial uptake, heart/blood, heart/liver and heart/lung tissue ratios were determined.

[Cl][201Tl] [^201 TlCl]
Mean % Dose/g or ml, Blood (5 min, blood): 0.26 % Dose/g or ml | Mean % Dose/g or ml, Heart (5 min, heart): 6.35 % Dose/g or ml | Mean % Dose/g or ml, Kidney (5 min, kidney): 6.53 % Dose/g or ml | Mean % Dose/g or ml, Liver (5 min, liver): 1.01 % Dose/g or ml | Mean % Dose/g or ml, Lung (5 min, lung): 4.69 % Dose/g or ml | Mean % Dose/g or ml, Muscle (5 min, skeletal muscle): 0.82 % Dose/g or ml | Mean Tissue Ratio Heart/Blood (5 min after dosing): 24.31 | Mean Tissue Ratio Heart/Liver (5 min after dosing): 6.31 | Mean Tissue Ratio Heart/Lung (5 min after dosing): 1.35
